Experimental data: publication PMC6855144, “Examination of the Glycine Betaine-Dependent Methylotrophic Methanogenesis Pathway: Insights Into Anaerobic Quaternary Amine Methylotrophy” (Frontiers in Microbiology, 2019)

Target: T1, MV8460 (MtgB) (Methanolobus vulcani, UniProt A0A7Z8KPC2)
T1 construct: gene FKV42_08460
T1 sequence (A0A7Z8KPC2 1-475): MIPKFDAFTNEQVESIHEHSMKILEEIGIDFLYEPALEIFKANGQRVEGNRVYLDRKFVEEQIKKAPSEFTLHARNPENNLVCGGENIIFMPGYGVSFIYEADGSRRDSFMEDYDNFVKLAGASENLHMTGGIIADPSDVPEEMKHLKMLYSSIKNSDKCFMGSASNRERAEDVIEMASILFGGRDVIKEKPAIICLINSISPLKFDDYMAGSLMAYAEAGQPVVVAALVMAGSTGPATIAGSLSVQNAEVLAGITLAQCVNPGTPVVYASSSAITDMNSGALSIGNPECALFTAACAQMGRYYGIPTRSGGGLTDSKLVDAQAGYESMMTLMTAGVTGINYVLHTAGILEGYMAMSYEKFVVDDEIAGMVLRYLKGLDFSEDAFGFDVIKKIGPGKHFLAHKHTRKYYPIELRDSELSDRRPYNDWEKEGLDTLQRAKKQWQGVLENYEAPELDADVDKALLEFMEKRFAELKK
Assay: UV-vis, methylation of free cob(I)alamin at […] nm
Assay type: biochemical
Settings: methyl donor 50 mM; co-substrate cob(I)alamin; 37 °C; anoxic

## C[N+](C)(C)CC(=O)[O-] [GB, glycine betaine]
  UV-vis, methylation of free cob(I)alamin at 540 nm: We detected methylation of free cob(I)alamin by MV8460 using GB as the methyl donor
